Assay [1] deals with human plasma. Description: Thrombelastography of venom naïve human plasma with iron and/or CO addition (Example I). As to conditions: baseline (venom naïve); 10 μM FeCl3 and/or 100 μM CORM-2; compared to plasma without any additions. It is filed as biochemical. The protocol:
(§1) Two-hundred mg of lyophilized, pooled venom was obtained from four western diamondback rattlesnakes (Crotalus atrox) for experimentation. Venom was reconstituted in calcium-free phosphate buffered saline (PBS, Sigma-Aldrich, Saint Louis, Mo., USA) at a concentration of 20 mg/ml, aliquoted, and then stored at −80° C. until experimentation at the University of Arizona. Pooled human normal plasma (George King Bio-Medical, Overland Park, Kans., USA) anticoagulated with sodium citrate was rapidly thawed at 37° C. and used for experimentation. To assess the effects of pretreatment of fibrinogen with iron, CO, or both, 1% additions of PBS, ferric chloride (FeCl3, 99.9% pure, Sigma-Aldrich, Saint Louis, Mo., USA) in PBS, or CORM-2 (tricarbonyldichlororuthenium (II) dimer, a CO releasing molecule, Sigma-Aldrich, Saint Louis, Mo., USA) dissolved in dimethyl sulfoxide (DMSO, Sigma-Aldrich, Saint Louis, Mo., USA). The final concentrations of FeCl3 and CORM-2 were 10 μM and 100 μM, respectively; these concentrations are associated with nearly maximal augmenting effects on coagulation kinetics (see, Nielsen V G, et al., Blood Coagul Fibrinolysis 2014; 25:695-702). Plasma was exposed to these various agents for at least 5 min prior to incubations with venom.
(§2) The final volume for all subsequently described plasma sample mixtures was 359.4 μl. Sample composition consisted of 326 μl of plasma; 10 μl of tissue factor reagent (0.1% final concentration in distilled water; Diagnostica Stago S.A.S., Asnieres sur Seine, France) and 3.4 μl of PBS or venom (final concentration 0.5 μg/ml). […] The aforementioned plasma and venom mixtures were placed in a disposable cup in a computer-controlled Thrombelastograph® hemostasis system (Model 5000, Haemoscope Corp., Niles, Ill., USA) and incubated for 5 or 20 min at 37° C., with addition of 20 μl of 200 mM CaCl2) as the last step to initiate clotting. Data were collected at 37° C. for 15 min after 5 min of incubation, whereas samples incubated with venom for 20 min had data collected for 30 min, given the prolonged onset of coagulation and diminished rate of thrombus formation. The following elastic modulus-based parameters previously described (see, Nielsen, et al., 2014, Blood Coagul. Fibrinolysis 25:695-702; Nielsen, et al., 2011, Blood Coagul. Fibrinolysis 22: 443-447); Nielsen V G, et al., Blood Coagul Fibrinolysis 2014; 25:845-850) were determined: time to maximum rate of thrombus generation (TMRTG): this is the time interval (min) observed prior to maximum speed of clot growth; maximum rate of thrombus generation (MRTG): this is the maximum velocity of clot growth observed (dynes/cm^2/sec); and total thrombus generation (TTG, dynes/cm^2), the final viscoelastic resistance observed after clot formation.
(§3) Data are presented as mean+SD. A commercially available statistical program was used for one-way analysis of variance followed by Holm-Sidak post hoc analyses (SigmaStat 3.1, Systat Software, Inc., San Jose, Calif., USA). Graphics depicting viscoelastic data were generated with a commercially available program (OrigenPro 7.5, OrigenLab Corporation, Northampton, Mass., USA; CorelDRAW12, Corel Corporation, Mountain View, Calif., USA).

Assay [2] deals with Crotalus atrox venom. In words: Thrombelastography of human plasma pretreated with iron and/or CO, then incubated with Crotalus atrox venom (Example I). Type of assay: biochemical. As to conditions: 0.5 μg/ml venom, 5 min incubation. The protocol: as §1, §2, §3

Turning to `[Cl][Fe]([Cl])[Cl]` [iron, ferric chloride], in assay [1], the “maximum rate of thrombus generation (MRTG)” value is listed as “increases”, the “time to maximum rate of thrombus generation (TMRTG)” value is listed as “significantly decreases” and the “total thrombus generation (TTG)” value is “does not affect”. Also, the “maximum rate of thrombus generation (MRTG), change on venom exposure” value in assay [2] (vs matched venom naïve samples) was “significantly decreased”. In assay [2] (vs plasma without additions exposed to venom), the “maximum rate of thrombus generation (MRTG)” value is listed as “significantly greater”. Besides, the “time to maximum rate of thrombus generation (TMRTG)” value in assay [2] (vs samples without iron/CO additions or with CO addition alone) is “significantly smaller”.

The values are drawn from patent US10828326B2, “Compositions and methods for treating and preventing venom related poisoning” (priority 2015, dated 2020).
